From patent publication EP2607478A1, “Phenanthroline treated MSC” (Universiteit Twente, priority 2011, dated 2013)

System: MSCs
Assay: Whole genome expression analysis (Illumina microarray) of treated MSCs
Type: cell-based, Human
Description: MSCs were seeded in T25 flasks at 5000 cells/cm^2 and allowed to attach overnight in proliferation medium. […] After 48 hours, RNA was isolated as described above. From 500 ng of RNA, cRNA was synthesized using the Illumina TotalPrep RNA amplification Kit (Ambion), according to the manufacturer's protocol and the quality of RNA and cRNA was verified on a Bioanalyzer 2100 (Agilent). Microarrays were performed using Illumina HT-12 v4 expression Beadchips, according to the manufacturer's protocol. Briefly, 750 ng of cRNA was hybridized on the array overnight after which the array was washed and blocked. Then, by addition of streptavidin Cy-3 a fluorescent signal was developed. Arrays were scanned on an Illumina iScan reader and raw intensity values were background corrected in GenomeStudio (Illumina). Further data processing and statistical testing were performed with R and Bioconductor statistical software (www.bioconductor.org), using package lumi. Raw intensity values were transformed using variance stabilization and a quantile normalization was performed. A linear modelling approach with empirical Bayesian methods, as implemented in Limma package (54), was applied for differential expression analysis of the resulting probe-level expression values. A gene list, containing only those genes with an absolute 1.5-fold change between different treatments, was uploaded to Ingenuity Pathway Analysis (IPA) software and used for core analysis. Pathways or networks with a p-value of 0.05 were considered statistically significant.

Compound: c1cnc2c(c1)ccc1cccnc12 [PHE, 1, 10-phenanthroline]
- logFC(D142_PHE - D142_BAS) IL6 (ProbeID ILMN_1699651): -2,31
- logFC(D142_PHE - D142_BAS) RRAGD (ProbeID ILMN_1699772): 3,13
- logFC(D142_PHE - D142_BAS) TSPAN18 (ProbeID ILMN_1699980): -2,03
- logFC(D142_PHE - D142_BAS) QPRT (ProbeID ILMN_1700268, PHE vs BAS): -2,59
- logFC(D142_PHE - D142_BAS) LPAR1 (ProbeID ILMN_1701441, PHE vs BAS): -2,35
- logFC(D142_PHE - D142_BAS) SULF1 (ProbeID ILMN_1702363, PHE vs BAS): -2,90
- logFC(D142_PHE - D142_BAS) AXUD1 (ProbeID ILMN_1703123): 2,51
- logFC(D142_PHE - D142_BAS) FEM1C (ProbeID ILMN_1703330): 2,53
- logFC(D142_PHE - D142_BAS) FHL3 (ProbeID ILMN_1703558): -2,34
- logFC(D142_PHE - D142_BAS) TNFRSF19 (ProbeID ILMN_1704154): -2,24
- logFC(D142_PHE - D142_BAS) SLC6A10P (ProbeID ILMN_1704446): 3,23
- logFC(D142_PHE - D142_BAS) PTGR1 (ProbeID ILMN_1704531): 2,56
- logFC(D142_PHE - D142_BAS) TGM2 (ProbeID ILMN_1705750, PHE vs BAS): -2,98
- logFC(D142_PHE - D142_BAS) DSE (ProbeID ILMN_1706498): -2,19
- logFC(D142_PHE - D142_BAS) TFPI (ProbeID ILMN_1707124): 2,04
- logFC(D142_PHE - D142_BAS) LRIG1 (ProbeID ILMN_1707342): 2,82
- logFC(D142_PHE - D142_BAS) ANGPTL4 (ProbeID ILMN_1707727): 7,28
- logFC(D142_PHE - D142_BAS) CNN2 (ProbeID ILMN_1708486): -2,15
- logFC(D142_PHE - D142_BAS) ACAT2 (ProbeID ILMN_1708672): -2,03
- logFC(D142_PHE - D142_BAS) ADM (ProbeID ILMN_1708934): 2,48
- logFC(D142_PHE - D142_BAS) C9orf46 (ProbeID ILMN_1709043): -2,08
- logFC(D142_PHE - D142_BAS) EMILIN1 (ProbeID ILMN_1711439): -2,30
- logFC(D142_PHE - D142_BAS) FAM20C (ProbeID ILMN_1712684): -2,12
- logFC(D142_PHE - D142_BAS) WISP1 (ProbeID ILMN_1713499): -2,11
- logFC(D142_PHE - D142_BAS) UBE2C (ProbeID ILMN_1714730): -2,16
- logFC(D142_PHE - D142_BAS) LOC346887 (ProbeID ILMN_1714741): 2,46
- logFC(D142_PHE - D142_BAS) NNMT (ProbeID ILMN_1715508, PHE vs BAS): -2,62
- logFC(D142_PHE - D142_BAS) ENAH (ProbeID ILMN_1716552): -2,13
- logFC(D142_PHE - D142_BAS) NGF (ProbeID ILMN_1716608): 2,06
- logFC(D142_PHE - D142_BAS) TPM1 (ProbeID ILMN_1716687): -2,28
- logFC(D142_PHE - D142_BAS) MYOM2 (ProbeID ILMN_1716733): 2,05
- logFC(D142_PHE - D142_BAS) TXNRD1 (ProbeID ILMN_1717056): 2,75
- logFC(D142_PHE - D142_BAS) C5orf46 (ProbeID ILMN_1718866): 3,15
- logFC(D142_PHE - D142_BAS) BNIP3L (ProbeID ILMN_1718961): 2,88
- logFC(D142_PHE - D142_BAS) FH (ProbeID ILMN_1719392, PHE vs BAS): -2,67
- logFC(D142_PHE - D142_BAS) TNC (ProbeID ILMN_1719759, PHE vs BAS): -3,17
- logFC(D142_PHE - D142_BAS) SLC7A5 (ProbeID ILMN_1720373): 2,69
- logFC(D142_PHE - D142_BAS) CA12 (ProbeID ILMN_1720998): 2,41
- logFC(D142_PHE - D142_BAS) JMJD1A (ProbeID ILMN_1722532): 3,45
- logFC(D142_PHE - D142_BAS) HK2 (ProbeID ILMN_1723486): 2,90
- logFC(D142_PHE - D142_BAS) IFI44L (ProbeID ILMN_1723912): -2,15
- logFC(D142_PHE - D142_BAS) BNIP3 (ProbeID ILMN_1724658): 3,47
- logFC(D142_PHE - D142_BAS) RIOK3 (ProbeID ILMN_1724700): 2,40
- logFC(D142_PHE - D142_BAS) CTHRC1 (ProbeID ILMN_1725090, PHE vs BAS): -2,95
- logFC(D142_PHE - D142_BAS) CA9 (ProbeID ILMN_1725139): 3,69
- logFC(D142_PHE - D142_BAS) GSTK1 (ProbeID ILMN_1725241): -2,02
- logFC(D142_PHE - D142_BAS) SLC3A2 (ProbeID ILMN_1726456): 2,24
- logFC(D142_PHE - D142_BAS) CD248 (ProbeID ILMN_1726589): -2,13
- logFC(D142_PHE - D142_BAS) OLFML3 (ProbeID ILMN_1727532, PHE vs BAS): -3,25
- logFC(D142_PHE - D142_BAS) AKR1A1 (ProbeID ILMN_1728047): -2,21
- logFC(D142_PHE - D142_BAS) PRC1 (ProbeID ILMN_1728934, PHE vs BAS): -2,53
- logFC(D142_PHE - D142_BAS) COL5A2 (ProbeID ILMN_1729117): -2,21
- logFC(D142_PHE - D142_BAS) C1QTNF6 (ProbeID ILMN_1729288): -2,08
- logFC(D142_PHE - D142_BAS) LEPR (ProbeID ILMN_1731966): -2,03
- logFC(D142_PHE - D142_BAS) SHB (ProbeID ILMN_1732612): 2,06
- logFC(D142_PHE - D142_BAS) STEAP1 (ProbeID ILMN_1733094, PHE vs BAS): -2,54
- logFC(D142_PHE - D142_BAS) RASSF7 (ProbeID ILMN_1733110): 2,83
- logFC(D142_PHE - D142_BAS) COL12A1 (ProbeID ILMN_1733756, PHE vs BAS): -3,95
- logFC(D142_PHE - D142_BAS) PPP1R3C (ProbeID ILMN_1736670): 2,44
- logFC(D142_PHE - D142_BAS) TMEM119 (ProbeID ILMN_1738116, PHE vs BAS): -4,96
- logFC(D142_PHE - D142_BAS) SLC1A3 (ProbeID ILMN_1738552): -2,18
- logFC(D142_PHE - D142_BAS) PLAT (ProbeID ILMN_1738742): 2,16
- logFC(D142_PHE - D142_BAS) PRRX1 (ProbeID ILMN_1739496, PHE vs BAS): -2,36
- logFC(D142_PHE - D142_BAS) FAM117B (ProbeID ILMN_1739942): 2,48
- logFC(D142_PHE - D142_BAS) CHSY3 (ProbeID ILMN_1740407, PHE vs BAS): -2,57
- logFC(D142_PHE - D142_BAS) ALDOA (ProbeID ILMN_1741148): 2,28
- logFC(D142_PHE - D142_BAS) RFX5 (ProbeID ILMN_1741200): -2,04
- logFC(D142_PHE - D142_BAS) PRICKLE1 (ProbeID ILMN_1741356, PHE vs BAS): -2,37
- logFC(D142_PHE - D142_BAS) C1QTNF5 (ProbeID ILMN_1744487, PHE vs BAS): -2,59
- logFC(D142_PHE - D142_BAS) ERO1L (ProbeID ILMN_1744963): 3,84
- logFC(D142_PHE - D142_BAS) CEP55 (ProbeID ILMN_1747016): -2,01
- logFC(D142_PHE - D142_BAS) PSMB8 (ProbeID ILMN_1747195): -2,24
- logFC(D142_PHE - D142_BAS) CDKN2D (ProbeID ILMN_1748883): 2,14
- logFC(D142_PHE - D142_BAS) MZF1 (ProbeID ILMN_1749838): 2,45
- logFC(D142_PHE - D142_BAS) EGLN1 (ProbeID ILMN_1749892): 2,72
- logFC(D142_PHE - D142_BAS) IGFBP5 (ProbeID ILMN_1750324): 2,34
- logFC(D142_PHE - D142_BAS) STXBP6 (ProbeID ILMN_1750912): 2,42
- logFC(D142_PHE - D142_BAS) HIST1H4H (ProbeID ILMN_1751120): 2,86
- logFC(D142_PHE - D142_BAS) C20orf46 (ProbeID ILMN_1751228): 2,17
- logFC(D142_PHE - D142_BAS) P2RY11 (ProbeID ILMN_1752226): 2,23
- logFC(D142_PHE - D142_BAS) FAM13A (ProbeID ILMN_1752510): 3,25
- logFC(D142_PHE - D142_BAS) LMCD1 (ProbeID ILMN_1754969, PHE vs BAS): -2,67
- logFC(D142_PHE - D142_BAS) PGK1 (ProbeID ILMN_1755749): 2,85
- logFC(D142_PHE - D142_BAS) ALDOC (ProbeID ILMN_1755974): 2,83
- logFC(D142_PHE - D142_BAS) ANKRD37 (ProbeID ILMN_1756417): 4,25
- logFC(D142_PHE - D142_BAS) COQ2 (ProbeID ILMN_1756572, PHE vs BAS): -2,49
- logFC(D142_PHE - D142_BAS) NDUFA4L2 (ProbeID ILMN_1756573): 5,61
- logFC(D142_PHE - D142_BAS) MUC1 (ProbeID ILMN_1756992): 2,56
- logFC(D142_PHE - D142_BAS) HCFC1R1 (ProbeID ILMN_1757877): 2,05
- logFC(D142_PHE - D142_BAS) STC1 (ProbeID ILMN_1758164): 4,35
- logFC(D142_PHE - D142_BAS) HIST1H2BD (ProbeID ILMN_1758623): 3,29
- logFC(D142_PHE - D142_BAS) IDS (ProbeID ILMN_1758626): 2,05
- logFC(D142_PHE - D142_BAS) FAM107B (ProbeID ILMN_1758672): 2,44
